The record followed here is patent US20050101657A1, “Androgen receptor antagonists” (Takeda Chemical Industries Ltd., priority 2001, published 2005).

Experiment [1] deals with Human prostate cancer cells LNCaP-FGC. As to the kind of experiment: Inhibition of prostate-specific antigen (PSA) production in prostate cancer cells. The experiment is classed as cell-based. Particulars: 72 h, testosterone 1 ng/ml, three days after addition, ELISA, read-out: IC50, PSA production in culture supernatant. As for the experimental part: Human prostate cancer cells LNCaP-FGC were seeded in a 24-well plate at a concentration of 40,000 cells/ml/well or in a 96-well plate at a concentration of 5000 cells/100 μl/well. On the following day, testosterone (final concentration 1 ng/ml) and a compound (final concentration 0.01 to 10 μM) were added. Three days after the addition, the concentration of PSA in the supernatant of the culture solution was measured by ELISA, and IC50 was calculated.

Experiment [2] has as its target T1, LNCaP type mutant androgen receptor (Homo sapiens, UniProt P10275, T878A).
T1 sequence (P10275 1-920 T878A): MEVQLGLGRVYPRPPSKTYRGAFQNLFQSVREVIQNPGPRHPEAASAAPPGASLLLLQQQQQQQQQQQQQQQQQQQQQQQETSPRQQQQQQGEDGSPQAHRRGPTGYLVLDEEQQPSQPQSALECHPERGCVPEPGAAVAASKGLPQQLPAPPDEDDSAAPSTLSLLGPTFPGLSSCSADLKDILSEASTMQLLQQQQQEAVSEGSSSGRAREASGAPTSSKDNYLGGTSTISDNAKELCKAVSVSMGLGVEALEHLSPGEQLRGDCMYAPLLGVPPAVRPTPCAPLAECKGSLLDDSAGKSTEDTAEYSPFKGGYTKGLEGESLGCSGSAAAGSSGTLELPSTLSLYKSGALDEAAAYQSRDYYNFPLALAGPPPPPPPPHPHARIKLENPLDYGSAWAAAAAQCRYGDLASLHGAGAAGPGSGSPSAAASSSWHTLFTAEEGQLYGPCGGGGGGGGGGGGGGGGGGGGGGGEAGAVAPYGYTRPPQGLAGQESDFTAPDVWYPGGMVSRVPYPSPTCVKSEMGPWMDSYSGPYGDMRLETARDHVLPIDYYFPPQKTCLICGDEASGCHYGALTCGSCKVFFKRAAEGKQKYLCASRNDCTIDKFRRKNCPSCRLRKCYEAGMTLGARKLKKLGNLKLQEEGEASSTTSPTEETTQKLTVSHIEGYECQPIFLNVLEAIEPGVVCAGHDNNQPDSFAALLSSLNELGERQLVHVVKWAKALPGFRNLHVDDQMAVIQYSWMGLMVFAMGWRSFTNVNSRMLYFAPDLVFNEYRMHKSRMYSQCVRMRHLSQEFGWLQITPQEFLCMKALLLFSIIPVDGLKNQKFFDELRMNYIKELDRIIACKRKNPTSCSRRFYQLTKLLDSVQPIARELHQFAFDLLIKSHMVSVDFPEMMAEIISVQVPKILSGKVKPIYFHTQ
As to the kind of experiment: AR-binding inhibition test (LNCaP type). Particulars: radio labeled Mibolerone 3 nM; 4° C., 3 hours; dextran/charcoal method. The procedure:
(§1) A solution of wild type or LNCaP type mutant androgen receptor, radio labeled Mibolerone (final concentration 3 nM) and a compound (final concentration 0.001 to 10 μM) were mixed. The mixture was incubated at 4° C. for 3 hours, and by the dextran/charcoal method, B (Bound) and F (Free) Mibolerone were separated. The radioactivity of B was measured and IC50 was calculated.

A further experiment addresses T2, mutation type AR (W741C) (Homo sapiens, UniProt P10275, W742C).
T2 construct: expressed in transfected cells; host or cells: Cos-7
T2 sequence (P10275 1-920 W742C): T1 sequence (P10275 1-920 T878A) with W742C, A878T
Description: AR transcription inhibition test (luciferase reporter). It is filed as cell-based. Particulars: Cos-7 cells; test compound 1 μM; DHT 0.04 μM; 24 hours; luciferase activity; read-out: Inhibition rate (%) relative to the control. As for the experimental part: Cos-7 cells were inoculated in a flask at 5,000,000 cells, and incubated in a culture solution (DMEM+10% Dextran Charcoal (DCC)-Fetal Bovine Serum (FBS) +2 mM glutamine) for 24 hours. A vector DNA in which a mutation type AR (W741C) gene was inserted and a vector DNA combined with luciferase gene downstream of the androgen responsive promoter were cotransfected by the liposome method. Two hours later, the culture medium was replaced and incubation was further carried out for 3 hours. DHT (Dihydrotestosterone) at a final concentration 0.04 μM and a test compound at a final concentration of 1 μM were added, and incubation was further carried out for 24 hours. By measuring luciferase activity, AR transcription inhibitory activity of the test compound was examined.
(A reporter such as luciferase makes a cellular process visible.)

The target in experiment [3] is T3, wild type androgen receptor (Homo sapiens, UniProt P10275).
T3 sequence (P10275 1-920): T1 sequence (P10275 1-920 T878A) with A878T
As to the kind of experiment: AR-binding inhibition test (wild type). Particulars: radio labeled Mibolerone 3 nM; 4° C., 3 hours; dextran/charcoal method. The procedure:
as §1

Molecules are shown by their SMILES. Residue numbers refer to the chain shown, from its start.

Consider `CC(O)(CS(=O)(=O)c1ccc(F)cc1)C(=O)Nc1ccc(C#N)c(C(F)(F)F)c1` (stereo not shown) [Bicalutamide, bicalutamide, reference compound], for which the IC50 (in general, the concentration that gives 50% inhibition) in experiment [1] is 823 nM.
In the case of `CCOC(=O)c1c(C)[nH]c(C)c1-c1ccc([N+](=O)[O-])cc1` [Example 1, Ethyl 2,5-dimethyl-4-(4-nitrophenyl)-1H-pyrrole-3-carboxylate], the IC50 in experiment [1] turned out to be 392 nM; in experiment [2], 200 nM; in experiment [3] it was 190 nM. Besides, the inhibition (in general, the change of the read-out against control, counted positive when it falls) at 1 µM at mutation type AR (W741C) is 64.3%.
Regarding `CCOC(=O)c1c(-c2ccc([N+](=O)[O-])cc2)c(C)n(Cc2ccccc2)c1C` [Example 4, Ethyl 1-benzyl-2,5-dimethyl-4-(4-nitrophenyl)-1H-pyrrole-3-carboxylate], the IC50 was 87 nM in experiment [1], 7.5 nM in experiment [2] and 7.8 nM in experiment [3]. The inhibition at 1 µM on mutation type AR (W741C) came out at 20.1%.
For the compound `COC(=O)c1c(-c2ccc(C#N)cc2)c(C)n(Cc2ccc(C#N)cc2)c1C` [Example 80, Methyl 1-(4-cyanobenzyl)-4-(4-cyanophenyl)-2,5-dimethyl-1H-pyrrole-3-carboxylate], the values for the IC50 in experiment [1], in experiment [2] and in experiment [3] were 34 nM, 68 nM and 40 nM, respectively. In addition, the inhibition at 1 µM on mutation type AR (W741C) was determined as 80.1%.
